Test results taken from patent US11629171B2, “Beta-hairpin peptidomimetics” (POLYPHOR AG, priority 2017, dated 2023).
Values after ≈ are worked out from the molar mass of the structure shown. Where a SMILES comes first, the peptide text is derived from it. Bridges are numbered along the chain shown (N, C = ends). Roman numbers before positions name the chains, in order. [ ]: non-standard residue; d: D form. The star is where a group is joined. Thr(ol) = C[C@@H](O)[C@H](N)CO; Tle = CC(C)(C)[C@H](N)C(=O)O; NMeV = CN[C@H](C(=O)O)C(C)C; d(hSer) = N[C@H](CCO)C(=O)O; Hiv = CC(C)[C@H](O)C(=O)O; dDab = NCC[C@@H](N)C(=O)O; hSer = N[C@@H](CCO)C(=O)O; NHCH(CH2OH)2 = OCC(CO)N*; Orn = NCCC[C@H](N)C(=O)O; Dab = NCC[C@H](N)C(=O)O; Dap = NC[C@H](N)C(=O)O

How the values were obtained:
Assay type in all cases: cell-based
[1] = system: Acinetobacter baumannii 872842; settings: 872842
Summary of the method: (§1)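 CLSI broth microdilution in cation-adjusted Mueller-Hinton II broth with 0.002% polysorbate 80 (final), inoculum appr. 10^6 CFU/mL, peptides in serial two-fold dilutions. MIC (μg/mL) is the lowest concentration without visible growth after 18-20 h at 35° C.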

[2] = system: Acinetobacter baumannii DSM 30008; settings: DSM 30008
Summary of the method: as §1

[3] = system: Enterobacter cloacae 848840; settings: 848840
Summary of the method: as §1

Escherichia coli 926415 = settings: 926415
Summary of the method: as §1

[4] = system: Escherichia coli ATCC 25922; settings: ATCC 25922
Summary of the method: as §1

[5] = system: Klebsiella pneumoniae 968733; settings: 968733
Summary of the method: as §1

[6] = system: Klebsiella pneumoniae SSI #3010; settings: SSI #3010
Summary of the method: as §1

[7] = system: Pseudomonas aeruginosa ATCC 27853; settings: ATCC 27853
Summary of the method: as §1

[8] = system: human red blood cells (hRBC); test: Hemolysis; settings: red cells of human, 1 h, 200
Summary of the method: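 Washed fresh hRBC (20% v/v) were incubated with peptides at 200 μg/mL for 1 h at 37° C with shaking at 300 rpm. Supernatant OD540 was read after centrifugation and dilution, blank-corrected, and expressed as percent of the 2% Triton X-100 (100% lysis) control; PBS with 10% water gave 0%.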

SMILES	MIC [1]	MIC [2]	MIC [3]	MIC (Escherichia coli 926415)	MIC [4]	MIC [5]	MIC [6]	MIC [7]	Hemolysis at 200 μg/mL [8]
CN[C@H](C(=O)N[C@H]1CSSC[C@@H](C(N)=O)NC(=O)[C@H](C(C)C)NC(=O)[C@H](CCO)NC(=O)[C@H](Cc2c[nH]c3ccccc23)NC(=O)[C@H](CCO)NC(=O)[C@@H](CCN)NC(=O)[C@H](CCC(=O)N[C@@H](CCN)C(=O)N[C@H](C(=O)N[C@@H](CCN)C(=O)N[C@H]2CCNC(=O)[C@H]([C@@H](C)O)NC(=O)[C@H](CCN)NC(=O)[C@H](CCN)NC(=O)[C@H](CC(C)C)NC(=O)[C@@H](CC(C)C)NC(=O)[C@H](CCN)NC2=O)[C@@H](C)O)NC(=O)[C@H](CCN)NC(=O)[C@H](Cc2ccc(O)cc2)NC1=O)C(C)C [Example 57] (I: H-[NMeV]CY[Dab]E[dDab][hSer]W[hSer]VC-NH2 / II: [Dab]T[Dab][Dab][Dab][dL]L[Dab][Dab]T; disulfide I:2-I:11; amide I:5-II:N; lactam II:4-II:C)	0.5 µg/mL (≈ 0.215 µM)	0.125 µg/mL (≈ 0.0537 µM)	0.25 µg/mL (≈ 0.107 µM)	0.5 µg/mL (≈ 0.215 µM)	0.125 µg/mL (≈ 0.0537 µM)	4 µg/mL (≈ 1.72 µM)	0.25 µg/mL (≈ 0.107 µM)	0.25 µg/mL (≈ 0.107 µM)	3%
CC(C)C[C@@H]1NC(=O)[C@@H](CC(C)C)NC(=O)[C@H](CCN)NC(=O)[C@@H](NC(=O)[C@H](CCN)NC(=O)[C@@H](NC(=O)[C@H](CCN)NC(=O)CC[C@@H]2NC(=O)[C@H](CCN)NC(=O)[C@H](Cc3ccc(O)cc3)NC(=O)[C@@H](NC(=O)[C@@H](O)C(C)C)CSSC[C@@H](C(=O)N[C@H](CO)[C@@H](C)O)NC(=O)[C@H](C(C)(C)C)NC(=O)CNC(=O)[C@H](Cc3c[nH]c4ccccc34)NC(=O)[C@H](CCO)NC(=O)[C@@H](CCN)NC2=O)[C@@H](C)O)CCNC(=O)[C@H]([C@@H](C)O)NC(=O)[C@H](CCN)NC(=O)[C@H](CCN)NC1=O [Ex. 87] (I: H-[Hiv]CY[Dab]E[dDab][hSer]WG[Tle]C[Thr(ol)] / II: [Dab]T[Dab][Dab][Dab][dL]L[Dab][Dab]T; disulfide I:2-I:11; amide I:5-II:N; lactam II:4-II:C)	0.25 µg/mL (≈ 0.105 µM)	0.0625 µg/mL (≈ 0.0264 µM)	2 µg/mL (≈ 0.844 µM)	0.0625 µg/mL (≈ 0.0264 µM)	0.0625 µg/mL (≈ 0.0264 µM)	0.125 µg/mL (≈ 0.0527 µM)	0.125 µg/mL (≈ 0.0527 µM)	0.125 µg/mL (≈ 0.0527 µM)	<1%
CC(=O)N[C@H](C(=O)N[C@H]1CSSC[C@@H](C(=O)N[C@@H](CO)C(N)=O)NC(=O)[C@H](C(C)(C)C)NC(=O)[C@H](CO)NC(=O)[C@H](Cc2c[nH]c3ccccc23)NC(=O)[C@H](CO)NC(=O)[C@@H](CCN)NC(=O)[C@H](CCC(=O)N[C@@H](CCN)C(=O)N[C@H](C(=O)N[C@@H](CN)C(=O)N[C@H]2CCNC(=O)[C@H]([C@@H](C)O)NC(=O)[C@H](CCN)NC(=O)[C@H](CCN)NC(=O)[C@H](CC(C)C)NC(=O)[C@@H](CC(C)C)NC(=O)[C@H](CCN)NC2=O)[C@@H](C)O)NC(=O)[C@H](CN)NC(=O)[C@H](Cc2ccc(O)cc2)NC1=O)C(C)C [Ex. 117] (I: Ac-VCY[Dap]E[dDab]SWS[Tle]CS-NH2 / II: [Dab]T[Dap][Dab][Dab][dL]L[Dab][Dab]T; disulfide I:2-I:11; amide I:5-II:N; lactam II:4-II:C)	0.01562 µg/mL (≈ 0.00651 µM)	0.01562 µg/mL (≈ 0.00651 µM)	0.0625 µg/mL (≈ 0.0261 µM)	0.0625 µg/mL (≈ 0.0261 µM)	0.0625 µg/mL (≈ 0.0261 µM)	0.0625 µg/mL (≈ 0.0261 µM)	0.0625 µg/mL (≈ 0.0261 µM)	0.125 µg/mL (≈ 0.0521 µM)	2%
CC(C)C[C@@H]1NC(=O)[C@@H](CC(C)C)NC(=O)[C@H](CCN)NC(=O)[C@@H](NC(=O)[C@H](CCN)NC(=O)[C@@H](NC(=O)[C@H](CCN)NC(=O)CC[C@@H]2NC(=O)[C@H](CCN)NC(=O)[C@H](Cc3ccc(O)cc3)NC(=O)[C@@H](NC(=O)[C@@H](O)C(C)C)CSSC[C@@H](C(=O)N[C@H](CO)[C@@H](C)O)NC(=O)[C@H](C(C)(C)C)NC(=O)[C@H](CCO)NC(=O)[C@H](Cc3c[nH]c4ccccc34)NC(=O)[C@H]([C@@H](C)O)NC(=O)[C@@H](CCN)NC2=O)[C@@H](C)O)CCNC(=O)[C@H]([C@@H](C)O)NC(=O)[C@H](CCN)NC(=O)[C@H](CCN)NC1=O [Ex. 82] (I: H-[Hiv]CY[Dab]E[dDab]TW[hSer][Tle]C[Thr(ol)] / II: [Dab]T[Dab][Dab][Dab][dL]L[Dab][Dab]T; disulfide I:2-I:11; amide I:5-II:N; lactam II:4-II:C)	0.25 µg/mL (≈ 0.104 µM)	0.125 µg/mL (≈ 0.0518 µM)	0.25 µg/mL (≈ 0.104 µM)	0.5 µg/mL (≈ 0.207 µM)	0.0625 µg/mL (≈ 0.0259 µM)	0.25 µg/mL (≈ 0.104 µM)	0.0625 µg/mL (≈ 0.0259 µM)	0.25 µg/mL (≈ 0.104 µM)	<1%
CC(C)C[C@@H]1NC(=O)[C@@H](CC(C)C)NC(=O)[C@H](CCN)NC(=O)[C@@H](NC(=O)[C@H](CN)NC(=O)[C@@H](NC(=O)[C@H](CCN)NC(=O)CC[C@@H]2NC(=O)[C@@H](NC(=O)[C@H](Cc3ccc(O)cc3)NC(=O)[C@@H](NC(=O)[C@@H](O)C(C)C)[C@@H](C)O)CSSC[C@@H](C(=O)N[C@H](C(=O)N[C@@H](C)C(=O)NC(CO)CO)C(C)(C)C)NC(=O)[C@H](Cc3c[nH]c4ccccc34)NC(=O)[C@H](CO)NC(=O)[C@@H](CCN)NC2=O)[C@@H](C)O)CCNC(=O)[C@H]([C@@H](C)O)NC(=O)[C@H](CCN)NC(=O)[C@H](CCN)NC1=O [Ex. 197] (I: H-[Hiv]TYCE[dDab]SWC[Tle]A-{NHCH(CH2OH)2} / II: [Dab]T[Dap][Dab][Dab][dL]L[Dab][Dab]T; disulfide I:4-I:9; amide I:5-II:N; lactam II:4-II:C)	0.25 µg/mL (≈ 0.107 µM)	0.0625 µg/mL (≈ 0.0267 µM)	0.25 µg/mL (≈ 0.107 µM)	0.5 µg/mL (≈ 0.213 µM)	0.0625 µg/mL (≈ 0.0267 µM)	0.5 µg/mL (≈ 0.213 µM)	0.125 µg/mL (≈ 0.0533 µM)	0.125 µg/mL (≈ 0.0533 µM)	<1%
CC(=O)N[C@H](C(=O)N[C@H]1CCCNC(=O)[C@@H](CCO)NC(=O)[C@H](C(C)(C)C)NC(=O)[C@H](CO)NC(=O)[C@H](Cc2c[nH]c3ccccc23)NC(=O)[C@H](CCO)NC(=O)[C@@H](CCN)NC(=O)[C@H](CCC(=O)N[C@@H](CCN)C(=O)N[C@H](C(=O)N[C@@H](CN)C(=O)N[C@H]2CCNC(=O)[C@H]([C@@H](C)O)NC(=O)[C@H](CCN)NC(=O)[C@H](CCN)NC(=O)[C@H](CC(C)C)NC(=O)[C@@H](CC(C)C)NC(=O)[C@H](CCN)NC2=O)[C@@H](C)O)NC(=O)[C@H](CO)NC(=O)[C@H](Cc2ccc(O)cc2)NC1=O)C(C)C [Ex. 22] (I: Ac-V[Orn]YSE[dDab][hSer]WS[Tle][d(hSer)] / II: [Dab]T[Dap][Dab][Dab][dL]L[Dab][Dab]T; lactam I:2-I:C, II:4-II:C; amide I:5-II:N)	0.25 µg/mL (≈ 0.108 µM)	0.0625 µg/mL (≈ 0.0269 µM)	0.125 µg/mL (≈ 0.0539 µM)	0.5 µg/mL (≈ 0.215 µM)	0.0625 µg/mL (≈ 0.0269 µM)	1 µg/mL (≈ 0.431 µM)	0.125 µg/mL (≈ 0.0539 µM)	0.5 µg/mL (≈ 0.215 µM)	<1%
CC(=O)N[C@H](C(=O)N[C@H]1CSSC[C@@H](C(=O)N[C@@H](CO)C(N)=O)NC(=O)[C@H](C(C)C)NC(=O)[C@H](CCC(=O)O)NC(=O)[C@H](Cc2c[nH]c3ccccc23)NC(=O)[C@H](CCO)NC(=O)[C@@H](CCN)NC(=O)[C@H](CCC(=O)N[C@@H](CCN)C(=O)N[C@H](C(=O)N[C@@H](CN)C(=O)N[C@H]2CCNC(=O)[C@H]([C@@H](C)O)NC(=O)[C@H](CCN)NC(=O)[C@H](CCN)NC(=O)[C@H](CC(C)C)NC(=O)[C@@H](CC(C)C)NC(=O)[C@H](CCN)NC2=O)[C@@H](C)O)NC(=O)[C@H](CCN)NC(=O)[C@H](Cc2ccc(O)cc2)NC1=O)C(C)C [Ex. 155] (I: Ac-VCY[Dab]E[dDab][hSer]WEVCS-NH2 / II: [Dab]T[Dap][Dab][Dab][dL]L[Dab][Dab]T; disulfide I:2-I:11; amide I:5-II:N; lactam II:4-II:C)	0.125 µg/mL (≈ 0.0509 µM)	0.0625 µg/mL (≈ 0.0255 µM)	0.125 µg/mL (≈ 0.0509 µM)	0.5 µg/mL (≈ 0.204 µM)	0.0625 µg/mL (≈ 0.0255 µM)	0.5 µg/mL (≈ 0.204 µM)	0.125 µg/mL (≈ 0.0509 µM)	0.125 µg/mL (≈ 0.0509 µM)	1%
